Experimental data as given in ChEMBL document CHEMBL5038625, “Application of the dual-tail approach for the design and synthesis of novel Thiopyrimidine-Benzenesulfonamide hybrids as selective carbonic anhydrase inhibitors” (Eur J Med Chem, 2022).

Assays:
EKVX = experiment: Antiproliferative activity against human EKVX cells assessed as cell growth inhibition at 10 uM incubated for 24 hrs by sulforhodamine B assay; format: functional; conditions: read-out: GI
NCI-H226 = experiment: Antiproliferative activity against human NCI-H226 cells assessed as cell growth inhibition at 10 uM incubated for 24 hrs by sulforhodamine B assay; format: functional; conditions: read-out: GI
NCI-H23 = experiment: Antiproliferative activity against human NCI-H23 cells assessed as cell growth inhibition at 10 uM incubated for 24 hrs by sulforhodamine B assay; format: functional; conditions: read-out: GI
NCI-H460 = experiment: Antiproliferative activity against human NCI-H460 cells assessed as cell growth inhibition at 10 uM incubated for 24 hrs by sulforhodamine B assay; format: functional; conditions: read-out: GI
COLO 205 = experiment: Antiproliferative activity against human COLO 205 cells assessed as cell growth inhibition at 10 uM incubated for 24 hrs by sulforhodamine B assay; format: functional; conditions: read-out: GI
HCT-15 = experiment: Antiproliferative activity against human HCT-15 cells assessed as cell growth inhibition at 10 uM incubated for 24 hrs by sulforhodamine B assay; format: functional; conditions: read-out: GI
KM12 = experiment: Antiproliferative activity against human KM12 cells assessed as cell growth inhibition at 10 uM incubated for 24 hrs by sulforhodamine B assay; format: functional; conditions: read-out: GI
SW-620 = experiment: Antiproliferative activity against human SW-620 cells assessed as cell growth inhibition at 10 uM incubated for 24 hrs by sulforhodamine B assay; format: functional; conditions: read-out: GI
SF-268 = experiment: Antiproliferative activity against human SF-268 cells assessed as cell growth inhibition at 10 uM incubated for 24 hrs by sulforhodamine B assay; format: functional; conditions: read-out: GI
SF-295 = experiment: Antiproliferative activity against human SF-295 cells assessed as cell growth inhibition at 10 uM incubated for 24 hrs by sulforhodamine B assay; format: functional; conditions: read-out: GI
SNB-19 = experiment: Antiproliferative activity against human SNB-19 cells assessed as cell growth inhibition at 10 uM incubated for 24 hrs by sulforhodamine B assay; format: functional; conditions: read-out: GI
Malme-3M = experiment: Antiproliferative activity against human Malme-3M cells assessed as cell growth inhibition at 10 uM incubated for 24 hrs by sulforhodamine B assay; format: functional; conditions: read-out: GI
M14 = experiment: Antiproliferative activity against human M14 cells assessed as cell growth inhibition at 10 uM incubated for 24 hrs by sulforhodamine B assay; format: functional; conditions: read-out: GI
SK-MEL-2 = experiment: Antiproliferative activity against human SK-MEL-2 cells assessed as cell growth inhibition at 10 uM incubated for 24 hrs by sulforhodamine B assay; format: functional; conditions: read-out: GI
SK-MEL-28 = experiment: Antiproliferative activity against human SK-MEL-28 cells assessed as cell growth inhibition at 10 uM incubated for 24 hrs by sulforhodamine B assay; format: functional; conditions: read-out: GI
SK-MEL-5 = experiment: Antiproliferative activity against human SK-MEL-5 cells assessed as cell growth inhibition at 10 uM incubated for 24 hrs by sulforhodamine B assay; format: functional; conditions: read-out: GI
UACC-257 = experiment: Antiproliferative activity against human UACC-257 cells assessed as cell growth inhibition at 10 uM incubated for 24 hrs by sulforhodamine B assay; format: functional; conditions: read-out: GI
UACC-62 = experiment: Antiproliferative activity against human UACC-62 cells assessed as cell growth inhibition at 10 uM incubated for 24 hrs by sulforhodamine B assay; format: functional; conditions: read-out: GI
IGROV-1 = experiment: Antiproliferative activity against human IGROV-1 cells assessed as cell growth inhibition at 10 uM incubated for 24 hrs by sulforhodamine B assay; format: functional; conditions: read-out: GI
OVCAR-3 = experiment: Antiproliferative activity against human OVCAR-3 cells assessed as cell growth inhibition at 10 uM incubated for 24 hrs by sulforhodamine B assay; format: functional; conditions: read-out: GI
OVCAR-8 = experiment: Antiproliferative activity against human OVCAR-8 cells assessed as cell growth inhibition at 10 uM incubated for 24 hrs by sulforhodamine B assay; format: functional; conditions: read-out: GI
SK-OV-3 [1] = experiment: Antiproliferative activity against human SK-OV-3 cells assessed as cell growth inhibition at 10 uM incubated for 24 hrs by sulforhodamine B assay; format: functional; conditions: read-out: GI
CAKI-1 = experiment: Antiproliferative activity against human CAKI-1 cells assessed as cell growth inhibition at 10 uM incubated for 24 hrs by sulforhodamine B assay; format: functional; conditions: read-out: GI
RXF 393 = experiment: Antiproliferative activity against human RXF 393 cells assessed as cell growth inhibition at 10 uM incubated for 24 hrs by sulforhodamine B assay; format: functional; conditions: read-out: GI
SN12C = experiment: Antiproliferative activity against human SN12C cells assessed as cell growth inhibition at 10 uM incubated for 24 hrs by sulforhodamine B assay; format: functional; conditions: read-out: GI
UO-31 = experiment: Antiproliferative activity against human UO-31 cells assessed as cell growth inhibition at 10 uM incubated for 24 hrs by sulforhodamine B assay; format: functional; conditions: read-out: GI
MCF7 [2] = experiment: Antiproliferative activity against human MCF7 cells assessed as cell growth inhibition at 10 uM incubated for 24 hrs by sulforhodamine B assay; format: functional; conditions: read-out: GI
BT-549 = experiment: Antiproliferative activity against human BT-549 cells assessed as cell growth inhibition at 10 uM incubated for 24 hrs by sulforhodamine B assay; format: functional; conditions: read-out: GI
T47D = experiment: Antiproliferative activity against human T47D cells assessed as cell growth inhibition at 10 uM incubated for 24 hrs by sulforhodamine B assay; format: functional; conditions: read-out: GI
MCF7 [3] = experiment: Antiproliferative activity against human MCF7 cells assessed as reduction in cell viability incubated for 24 hrs by sulforhodamine B assay; format: functional, cell-based; conditions: MCF7, 24 h
HCT-116 = experiment: Antiproliferative activity against human HCT-116 cells assessed as reduction in cell viability incubated for 24 hrs by sulforhodamine B assay; conditions: HCT-116, 24 h
HT-29 = experiment: Antiproliferative activity against human HT-29 cells assessed as reduction in cell viability incubated for 24 hrs by sulforhodamine B assay; conditions: HT-29, 24 h
SK-OV-3 [4] = experiment: Antiproliferative activity against human SK-OV-3 cells assessed as reduction in cell viability incubated for 24 hrs by sulforhodamine B assay; conditions: SK-OV-3, 24 h
NCI/ADR-RES = experiment: Antiproliferative activity against human NCI-ADR-RES cells assessed as reduction in cell viability incubated for 24 hrs by sulforhodamine B assay
MCF7 [5] = experiment: Cell cycle arrest in human MCF7 cells assessed as accumulation at G1 phase incubated for 48 hrs by propidium iodide staining based flow cytometric analysis (reference value: 42.84 %); format: functional
MCF7 [6] = experiment: Cell cycle arrest in human MCF7 cells assessed as accumulation at sub G1 phase incubated for 48 hrs by propidium iodide staining based flow cytometric analysis (reference value: 1.09 %); format: functional
MDA-MB-231 [7] = experiment: Cell cycle arrest in human MDA-MB-231 cells assessed as accumulation at G1 phase incubated for 48 hrs by propidium iodide staining based flow cytometric analysis (reference value: 55.63 %); format: functional
MDA-MB-231 [8] = experiment: Cell cycle arrest in human MDA-MB-231 cells assessed as accumulation at G2 phase incubated for 48 hrs by propidium iodide staining based flow cytometric analysis (reference value: 20.65 %); format: functional
MDA-MB-231 [9] = experiment: Cell cycle arrest in human MDA-MB-231 cells assessed as accumulation at sub G1 phase incubated for 48 hrs by propidium iodide staining based flow cytometric analysis (reference value: 0.2 %); format: functional
MCF7 [10] = experiment: Induction of apoptosis in human MCF cells assessed as viable cells measured after 48 hrs by Annexin-V-FITC/propidium iodide staining based flow cytometry (reference value: 98.15%); format: functional
MCF7 [11] = experiment: Induction of apoptosis in human MCF cells assessed as late apoptotic cells measured after 48 hrs by Annexin-V-FITC/propidium iodide staining based flow cytometry (reference value: 0.82%); format: functional

## COc1ccc(OC)c(-c2nc(SCC(=O)c3ccc(Br)cc3)nc(Nc3ccc(S(N)(=O)=O)cc3)c2C#N)c1
EKVX
  inhibition of growth at 10 µM: 36.3%
NCI-H226
  inhibition of growth at 10 µM: 50%
NCI-H23
  inhibition of growth at 10 µM: 41.6%
NCI-H460
  inhibition of growth at 10 µM: 79.2%
COLO 205
  inhibition of growth at 10 µM: 31.6%
HCT-15
  inhibition of growth at 10 µM: 77.9%
KM12
  inhibition of growth at 10 µM: 79.1%
SW-620
  inhibition of growth at 10 µM: 64%
SF-268
  inhibition of growth at 10 µM: 43.3%
SF-295
  inhibition of growth at 10 µM: 66.9%
SNB-19
  inhibition of growth at 10 µM: 50.1%
Malme-3M
  inhibition of growth at 10 µM: 49.8%
M14
  inhibition of growth at 10 µM: 57.5%
SK-MEL-2
  inhibition of growth at 10 µM: 69.6%
SK-MEL-28
  inhibition of growth at 10 µM: 42.3%
SK-MEL-5
  inhibition of growth at 10 µM: 44%
UACC-257
  inhibition of growth at 10 µM: 43.1%
UACC-62
  inhibition of growth at 10 µM: 57.3%
IGROV-1
  inhibition of growth at 10 µM: 45.3%
OVCAR-3
  inhibition of growth at 10 µM: 49.4%
OVCAR-8
  inhibition of growth at 10 µM: 37.2%
SK-OV-3 [1]
  inhibition of growth at 10 µM: 20.1%
CAKI-1
  inhibition of growth at 10 µM: 65.6%
RXF 393
  inhibition of growth at 10 µM: 82.7%
SN12C
  inhibition of growth at 10 µM: 50.9%
UO-31
  inhibition of growth at 10 µM: 40.8%
MCF7 [2]
  inhibition of growth at 10 µM: 71.1%
BT-549
  inhibition of growth at 10 µM: 50.6%
T47D
  inhibition of growth at 10 µM: 28.9%
MCF7 [3]
  IC50: 2.5 µM
HCT-116
  IC50: 2.5 µM
HT-29
  IC50: 4.3 µM
SK-OV-3 [4]
  IC50: 29.9 µM
NCI/ADR-RES
  IC50: 33.7 µM
MCF7 [5]
  Activity: 5.77%
MCF7 [6]
  Activity: 35.5%
MDA-MB-231 [7]
  Activity: 39.7%
MDA-MB-231 [8]
  Activity: 30.07%
MDA-MB-231 [9]
  Activity: 11.52%
MCF7 [10]
  Activity: 88.17%
MCF7 [11]
  Activity: 3.96%
